The conditions of series [1]: Crystal; DTA.
Series [2] is described as follows: Molar enthalpy of transition or fusion. The conditions noted are these: Crystal; DSC.
Series [3] in a line: molar enthalpy of vaporization or sublimation. The note with it: 298.15 K; Crystal; Static calorimetry.

Structures are written as SMILES. ± gives the expanded uncertainty stated by the source.

Consider `O=c1ccc2ccc(O)cc2o1` [7-hydroxy-2H-chromen-2-one], for which the Triple point temperature in series [1] is listed as 503.74 ± 0.39 K. In series [2], the “Molar enthalpy of transition or fusion” value was found to be 31.2 ± 0.7 kJ/mol. The molar enthalpy in series [3] worked out at 134 ± 3 kJ/mol.
